According to patent US20150202196A1, “Methods of Using C-Met Modulators” (priority 2010, published 2015):

What was measured:
[1] = test system: human pancreatic adenocarcinomas; type: in vivo; conditions: for % of CD44+c-Met+ cancer stem cells in tumor: flow cytometry after 4 weeks treatment; for tumor growth during the 4 week period of treatment: subcutaneous tumor volume, weekly, FIG. 8B; for effect on cancer stem cell population (in words): CD44+c-Met+, flow cytometry; for tumor growth following cessation of treatment: versus untreated tumors
Procedure: Samples of human pancreatic adenocarcinomas were obtained. Within 60 minutes following surgical resection, tumors were suspended in sterile RPMI medium 1640 (available from Sigma-Aldrich®), mechanically dissociated using scissors, then minced with a sterile scalpel blade over ice to yield 2×2 mm pieces. The tumor pieces were washed with serum-free PBS before implantation. Eight-week-old male NOD/SCID mice were anesthetized using an i.p. injection of 100 mg/kg ketamine and 5 mg/kg xylazine. NOD/SCID mice are publically available from Charles River Laboratories International in Wilmington, Mass. A 5-mm incision was then made in the skin overlying the mid-abdomen, and three pieces of tumor were implanted subcutaneously. The skin incision was closed with absorbable suture. The mice were monitored weekly for tumor growth for 16 to 20 weeks. After establishment of xenografts, studies were performed on passage 2 tumors.
Xenograft tumors or primary human tumors were cut up into small pieces with scissors, and then minced completely using sterile scalpel blades. To obtain single cell suspensions, the resultant minced tumor pieces were mixed with ultra-pure collagenase IV (Worthington Biochemical, Lakewood, N.J.) in medium 199 (200 units of collagenase per ml) and allowed to incubate at 37° C. for 1 to 1.5 hours for enzymatic dissociation. The specimens were further mechanically dissociated every 10 minutes by pipetting with a 10-ml pipette. At the end of the incubation, cells were filtered through a 40-μm nylon mesh, washed with HBSS/20% FBS, and then washed twice with HBSS.
Sorted cells or bulk pancreatic tumor cells were washed with serum free HBSS and suspended in serum free-RPMI1640/Matrigel mixture (1:1 volume), followed by injection into the subcutaneous tissue of the right and left mid-abdominal area using a 27-gauge needle. In separate experiments, mice were anesthetized with an i.p. injection of 100 mg/kg ketamine and 5 mg/kg xylazine, and a small median laparotomy was performed. Five thousand sorted cells or 1-5×10^5 bulk tumor cells resuspended in PBS/Matrigel mixture (1:1) in a volume of 100 µl were injected into the tail of the pancreas using a 30-gauge needle. PBS stands for phosphate buffered saline, which can be obtained from Thermo Fisher Scientific Inc. Six mice were inoculated per test group. Animals then underwent autopsy, and tumor growth was accessed after 4 to 8 weeks. Tissues were fixed in formaldehyde and were examined histologically or dissociated to generate single cell suspensions for further study.
[…]. CD44 and c-Met are both markers on pancreatic cancer stem cells.
. Subcutaneous tumor volume was assessed weekly. […] Half of the mice in each group were euthanized 4 weeks after initiation of treatment, and the tumors were dissociated and examined using flow cytometry to determine the percentage of c-Met+/CD44+ cancer stem cells within the tumors. The remaining mice were kept for an additional 8 weeks following cessation of treatment, and tumor volume was measured weekly. […]. […]. […]
Tumor size was measured weekly. Three mice of each group were euthanized after 4 weeks treatment for analysis of cancer stem cells, and the other mice were followed to monitor tumor growth for an additional 8 weeks. […] In FIG. 8B, the average tumor size±SEM from three separate tumors is presented. FIG. 8C depicts a graph of CSC percentage in different treatment groups. The percentage of the c-Met+/CD44+ tumorigenic cancer cell population in the total cancer cell population is indicated for each treatment.

[2] = test system: primary human pancreatic cancer; assay: Orthotopic implants of primary human pancreatic cancer in the pancreatic tail of NOD/SCID mice: bioluminescent tumor growth and cancer stem cells; type: in vivo; conditions: for effect on cancer stem cell population (in words): CD44+CD24+ESA+; for effect on cancer stem cell population (in words) / % of CD44+CD24+ESA+ cancer stem cells in tumor: flow cytometry; for % of CD44+CD24+ESA+ cancer stem cells in tumor: table title says subcutaneous xenograft tumor, text cites it for orthotopic implants; for tumor growth during the 4 week treatment: orthotopic tumors, bioluminescent imaging, versus controls
Procedure: Sorted cells or bulk pancreatic tumor cells were washed with serum free HBSS and suspended in serum free-RPMI1640/Matrigel mixture (1:1 volume), followed by injection into the subcutaneous tissue of the right and left mid-abdominal area using a 27-gauge needle. In separate experiments, mice were anesthetized with an i.p. injection of 100 mg/kg ketamine and 5 mg/kg xylazine, and a small median laparotomy was performed. Five thousand sorted cells or 1-5×10^5 bulk tumor cells resuspended in PBS/Matrigel mixture (1:1) in a volume of 100 µl were injected into the tail of the pancreas using a 30-gauge needle. […] Animals then underwent autopsy, and tumor growth was accessed after 4 to 8 weeks.
To validate the findings with bioluminescent imaging, mice were euthanized with carbon dioxide inhalation, and autopsies were performed to assess the extent of primary tumor growth and metastasis.
The same three pancreatic cancers used for the subcutaneous tumor implantation experiments were infected with a lentivirus expressing luciferase to allow imaging in real time, and cells were injected into the pancreatic tail.
Tumor size and volume were measured weekly using Xenogen IVIS 200 imaging system throughout the experiment period.

[3] = Compound 1 30 mg/kg/day, GEM 100 mg/kg/twice weekly

Nc1ccn([C@@H]2O[C@H](CO)[C@@H](O)C2(F)F)c(=O)n1 [GEM, gemcitabine]
% of CD44+c-Met+ cancer stem cells in tumor [1, 3]: 4.34%
tumor growth during the 4 week period of treatment [1]: significantly inhibited tumor growth
increase of the c-Met+CD44+ population ([1]; subcutaneous tumors, 4 weeks treatment, GEM 100 mg/kg/twice weekly): 48±20%
effect on cancer stem cell population (in words) ([1]; subcutaneous tumors): increases in the total number of pancreatic cancer stem cells
tumor growth following cessation of treatment ([1]; subcutaneous tumors): grew more slowly than the untreated tumors
effect on cancer stem cell population (in words) [2]: increases in the total number of pancreatic cancer stem cells
% of CD44+CD24+ESA+ cancer stem cells in tumor [2]: 4.3%
tumor growth during the 4 week treatment [2]: prevented tumor growth

COc1cc2nccc(Oc3ccc(NC(=O)C4(C(=O)Nc5ccc(F)cc5)CC4)cc3)c2cc1OC [Compound 1, N-(4-{[6,7-bis(methyloxy)quinolin-4-yl]oxy}phenyl)-N′-(4-fluorophenyl)cyclopropane-1,1-dicarboxamide]
% of CD44+c-Met+ cancer stem cells in tumor [1, 3]: 0.55%
tumor growth during the 4 week period of treatment [1]: significantly inhibited tumor growth
decrease in CD44+c-Met+ cancer stem cell population ([1]; subcutaneous tumors, 4 weeks treatment, Compound 1 30 mg/kg/day, GEM 100 mg/kg/twice weekly): 83±3%
effect on cancer stem cell population (in words) ([1]; subcutaneous tumors): significantly depleted
tumor growth following cessation of treatment ([1]; subcutaneous tumors): grew more slowly than the untreated tumors
effect on cancer stem cell population (in words) [2]: significantly depleted
% of CD44+CD24+ESA+ cancer stem cells in tumor [2]: 0.61%
tumor growth during the 4 week treatment [2]: prevented tumor growth
